Source: patent US10472386B2, “Bile acid derivatives as FXR agonists and methods of use thereof” (priority 2017, dated 2019)

Molecular target: T1, human FXR (NR1H4) (Homo sapiens, UniProt Q96RI1)
T1 sequence (Q96RI1 1-486): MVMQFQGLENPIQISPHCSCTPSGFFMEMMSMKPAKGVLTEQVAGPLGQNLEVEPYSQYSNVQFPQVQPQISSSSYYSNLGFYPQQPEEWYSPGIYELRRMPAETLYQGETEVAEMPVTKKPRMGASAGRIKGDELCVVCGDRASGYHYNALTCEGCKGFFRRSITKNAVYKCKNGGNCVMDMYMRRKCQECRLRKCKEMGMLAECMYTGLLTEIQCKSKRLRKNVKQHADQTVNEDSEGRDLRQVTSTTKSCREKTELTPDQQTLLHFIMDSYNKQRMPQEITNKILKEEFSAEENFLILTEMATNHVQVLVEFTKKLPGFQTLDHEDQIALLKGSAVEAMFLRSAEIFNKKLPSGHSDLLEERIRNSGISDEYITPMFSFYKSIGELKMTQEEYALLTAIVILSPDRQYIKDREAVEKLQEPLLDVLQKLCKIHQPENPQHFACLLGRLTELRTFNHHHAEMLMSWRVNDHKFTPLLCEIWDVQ
Assay: Human FXR (NR1H4) Assay (Gal4 promoter driven luciferase reporter, Indigo Bioscience kit IB00601)
Assay type: cell-based
Conditions: FXR agonistic potency; CHO reporter cells expressing human NR1H4; 22 hours incubation; luciferase readout
Excerpt: Determination of a ligand mediated Gal4 promoter driven transactivation to quantify ligand binding mediated activation of FXR. FXR Reporter Assay kit purchased from Indigo Bioscience (Catalogue number: IB00601) to determine the potency and efficacy of compound developed by Enanta that can induce FXR activation. The principle application of this reporter assay system is to quantify functional activity of human FXR. The assay utilizes non-human mammalian cells, CHO (Chinese hamster ovary) cells engineered to express human NR1H4 protein (referred to as FXR). Reporter cells also incorporate the cDNA encoding beetle luciferase which catalyzes the substrates and yields photon emission. Luminescence intensity of the reaction is quantified using a plate-reading luminometer, Envision. Reporter Cells include the luciferase reporter gene functionally linked to an FXR responsive promoter. Thus, quantifying changes in luciferase expression in the treated reporter cells provides a sensitive surrogate measure of the changes in FXR activity. […] The assay is according to the manufacturer's instructions. In brief, the assay was performed in white, 96 well plates using final volume of 100 uL containing cells with different doses of compounds. Retrieve Reporter Cells from −80° C. storage. Perform a rapid thaw of the frozen cells by transferring a 10 ml volume of 37° C. cell recovery medium into the tube of frozen cells. Recap the tube of Reporter Cells and immediately place it in a 37° C. water bath for 5-10 minutes. Retrieve the tube of Reporter Cell Suspension from the water bath. Sanitize the outside surface of the tube with a 70% alcohol swab, and then transfer it into the cell culture hood. Dispense 90 μl of cell suspension into each well of the 96-well Assay Plate. Transfer the plate into 37° C. incubator, allowing the cells adherent to the bottom of the well. Dilute compounds in Dilution Plate (DP), and administrate to cells at Assay Plate (AP). DMSO content of the samples was kept at 0.2%. Cells were incubated for additional 22 hours before luciferase activities were measured. Thirty minutes before intending to quantify FXR activity, remove Detection Substrate and Detection Buffer from the refrigerator and place them in a low-light area so that they may equilibrate to room temperature. Remove the plate's lid and discard all media contents by ejecting it into an appropriate waste container. Gently tap the inverted plate onto a clean absorbent paper towel to remove residual droplets. Cells will remain tightly adhered to well bottoms. Add 100 μl of luciferase detection reagent to each well of the assay plate. Allow the assay plate to rest at room temperature for at least 5 minutes following the addition of LDR. Set the instrument (Envision) to perform a single 5 second “plate shake” prior to reading the first assay well. Read time may be 0.5 second (500 mSec) per well.

Structure (SMILES): CC[C@H]1[C@@H](O)[C@@H]2[C@H](C[C@H](O)[C@]3(C)[C@@H]([C@H](C)COC(=O)NS(=O)(=O)c4ccc(OC(C)C)cc4)CC[C@@H]23)[C@@]2(C)CC[C@@H](O)C[C@@H]12 [Example 31]
- EC50: > 100 nM

Structure (SMILES): CC[C@H]1[C@@H](O)[C@@H]2[C@H](CC[C@]3(C)[C@@H]([C@H](C)COC(=O)NS(=O)(=O)c4ccc(OC5(C)CC5)cc4)CC[C@@H]23)[C@@]2(C)CC[C@@H](O)C[C@@H]12 [Example 29]
- EC50: < 1 nM

Structure (SMILES): C[C@H](COC(=O)NS(=O)(=O)c1ccc(OC(C)(C)C)cc1)[C@H]1CC[C@H]2[C@@H]3[C@H](O)C[C@@H]4C[C@H](O)CC[C@]4(C)[C@H]3CC[C@]12C [Example 2]
- EC50: 10 to 100 nM

Structure (SMILES): CC[C@H]1[C@@H](O)[C@@H]2[C@H](CC[C@]3(C)[C@@H]([C@H](C)COC(=O)NS(=O)(=O)c4ccc(OC(C)C)c(C)c4)CC[C@@H]23)[C@@]2(C)CC[C@@H](O)C[C@@H]12 [Example 13]
- EC50: < 1 nM
